We go through 30 compounds from paper PMC8759733 (Journal of Enzyme Inhibition and Medicinal Chemistry, 2021).

Entries after “also recorded” stand apart in the source; their conditions may differ.

In general, IC50 refers to the concentration that gives 50% inhibition. Read a high IC50 as weaker potency in that assay.

The target of experiment [1] is Acetylcholinesterase (AChE) (Electrophorus electricus, UniProt O42275). The experiment is described as follows: Cholinesterase inhibition activity assay. It is filed as biochemical. Particulars: for inhibition at 1 µg/mL: read-out: Percentage of AChE inhibition at 1 µg/mL.
For experiment [2], the target named is butyrylcholinesterase (BChE) (Equus caballus, UniProt P81908). As to the kind of experiment: Cholinesterase inhibition activity assay. It is filed as biochemical, Equine serum. The note with it: read-out: BChE Percentage of inhibition at 4 µg/mL.
The target of a further experiment is AChE (Electrophorus electricus, UniProt O42275). As to the kind of experiment: AChE enzyme kinetic study. Type of experiment: biochemical. Particulars: substrate ATCI 0.43-6.90 mM; Lineweaver-Burk plot.
Sequence of AChE (O42275 24-633): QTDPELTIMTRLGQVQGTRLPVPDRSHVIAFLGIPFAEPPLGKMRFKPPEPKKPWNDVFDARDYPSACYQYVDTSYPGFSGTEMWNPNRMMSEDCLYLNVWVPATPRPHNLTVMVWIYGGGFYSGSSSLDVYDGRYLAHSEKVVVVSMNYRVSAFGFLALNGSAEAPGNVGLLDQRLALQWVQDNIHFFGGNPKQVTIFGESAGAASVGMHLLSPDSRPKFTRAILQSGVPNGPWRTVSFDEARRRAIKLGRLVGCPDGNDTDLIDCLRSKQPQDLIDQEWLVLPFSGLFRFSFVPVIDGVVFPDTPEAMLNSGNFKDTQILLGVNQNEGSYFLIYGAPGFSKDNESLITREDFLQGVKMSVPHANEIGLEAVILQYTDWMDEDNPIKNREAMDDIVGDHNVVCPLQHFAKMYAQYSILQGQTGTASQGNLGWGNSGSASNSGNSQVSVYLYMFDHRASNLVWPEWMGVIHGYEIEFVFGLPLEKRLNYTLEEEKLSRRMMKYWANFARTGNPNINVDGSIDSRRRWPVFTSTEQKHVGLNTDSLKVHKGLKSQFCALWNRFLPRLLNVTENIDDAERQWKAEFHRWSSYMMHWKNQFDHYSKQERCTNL

Sequence of butyrylcholinesterase (BChE) (P81908 whole entry): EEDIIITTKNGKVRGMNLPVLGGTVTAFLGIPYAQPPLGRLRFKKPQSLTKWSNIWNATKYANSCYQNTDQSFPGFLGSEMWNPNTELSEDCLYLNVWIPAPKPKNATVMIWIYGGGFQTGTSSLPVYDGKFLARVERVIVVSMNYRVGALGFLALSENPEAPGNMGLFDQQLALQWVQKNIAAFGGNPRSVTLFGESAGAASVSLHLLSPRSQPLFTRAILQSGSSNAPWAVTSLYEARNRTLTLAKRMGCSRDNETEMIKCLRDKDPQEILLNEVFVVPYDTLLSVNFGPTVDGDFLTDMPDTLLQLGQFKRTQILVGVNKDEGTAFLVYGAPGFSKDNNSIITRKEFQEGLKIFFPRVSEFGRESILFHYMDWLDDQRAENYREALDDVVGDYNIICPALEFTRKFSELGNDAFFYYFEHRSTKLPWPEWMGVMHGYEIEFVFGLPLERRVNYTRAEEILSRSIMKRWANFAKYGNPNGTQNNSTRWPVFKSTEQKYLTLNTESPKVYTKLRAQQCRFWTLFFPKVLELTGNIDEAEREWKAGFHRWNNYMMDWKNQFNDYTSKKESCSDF
Sequence of Acetylcholinesterase (AChE) (O42275 24-633): as the sequence (O42275 24-633) above

`O=c1c2ccccc2oc2cc(O)ccc12` [Compound 1, 3-hydroxyxanthone]: inhibition in experiment [1] was half-maximal at 2390 ± 110 nM (IC50). For the same compound, the inhibition at 4 µg/mL in experiment [2] was 6.55 ± 0.82%.

In experiment [1], `CCCOc1ccc2c(=O)c3ccccc3oc2c1` [Compound 2, 3-Propoxy-9H-xanthen-9-one] gave an IC50 of 1860 ± 40 nM. Moreover, the inhibition at 4 µg/mL in experiment [2] amounted to 11.9 ± 1.74%.

In experiment [1], `CCCCOc1ccc2c(=O)c3ccccc3oc2c1` [Compound 3, 3-Butoxy-9H-xanthen-9-one] had an IC50 of 1400 ± 140 nM. In addition, in experiment [2], the inhibition at 4 µg/mL is 17.6 ± 1.89%.

As for `CC(C)Oc1ccc2c(=O)c3ccccc3oc2c1` [Compound 4, 3-Isopropoxy-9H-xanthen-9-one], the half-inhibitory concentration (IC50) in experiment [1] was determined as 1410 ± 130 nM. Further, the inhibition at 4 µg/mL in experiment [2] stood at 20.7 ± 1.75%.

Turning to `CC(C)COc1ccc2c(=O)c3ccccc3oc2c1` [Compound 5, 3-Isobutoxy-9H-xanthen-9-one], the IC50 in experiment [1] was 1180 ± 110 nM. Further, the inhibition at 4 µg/mL in experiment [2] was 9.78 ± 1.22%.

Turning to `CC(C)CCOc1ccc2c(=O)c3ccccc3oc2c1` [Compound 6, 3-(Isopentyloxy)-9H-xanthen-9-one], the 50% inhibitory concentration (IC50) in experiment [1] stood at 1840 ± 210 nM. Besides, in experiment [2], the inhibition at 4 µg/mL amounted to 5.47 ± 0.61%.

Take `CC[C@H](C)COc1ccc2c(=O)c3ccccc3oc2c1` [Compound 7, (S)-3-(2-Methylbutoxy)-9H-xanthen-9-one]: half-maximal inhibition in experiment [1] (IC50) was put at 1740 ± 200 nM. In experiment [2], the inhibition at 4 µg/mL is 24.8 ± 1.96%.

In experiment [1], `CCC(CC)COc1ccc2c(=O)c3ccccc3oc2c1` [Compound 8, 3-(2-Ethylbutoxy)-9H-xanthen-9-one] gave an IC50 of 1150 ± 190 nM. Besides, in experiment [2], the inhibition at 4 µg/mL worked out at 12.6 ± 1.26%.

In turn, `CC(C)CCCOc1ccc2c(=O)c3ccccc3oc2c1` [Compound 9, 3-((4-Methylpentyl)oxy)-9H-xanthen-9-one] gave an IC50 in experiment [1] of 2070 ± 60 nM. The inhibition at 4 µg/mL in experiment [2] is 11.8 ± 0.98%.

Take `O=c1c2ccccc2oc2cc(OCC3CCC3)ccc12` [Compound 10, 3-(Cyclobutylmethoxy)-9H-xanthen-9-one]: the IC50 in experiment [1] worked out at 1610 ± 110 nM. Further, the inhibition at 4 µg/mL in experiment [2] amounted to 7.01 ± 1.16%.

For `O=c1c2ccccc2oc2cc(OCCC3CCCCC3)ccc12` [Compound 11, 3-(2-Cyclohexylethoxy)-9H-xanthen-9-one], 1270 ± 130 nM corresponded to half-maximal inhibition in experiment [1] (IC50). Also, in experiment [2], the inhibition at 4 µg/mL amounted to 24.3 ± 2.29%.

On to `C=CCCOc1ccc2c(=O)c3ccccc3oc2c1` [Compound 12, 3-(But-3-en-1-yloxy)-9H-xanthen-9-one], for which half-maximal inhibition in experiment [1] (IC50) required 2090 ± 210 nM. Also, the inhibition at 4 µg/mL in experiment [2] is 5.33 ± 0.17%.

Take `C=CCCCOc1ccc2c(=O)c3ccccc3oc2c1` [Compound 13, 3-(Pent-4-en-1-yloxy)-9H-xanthen-9-one]: in experiment [1], the IC50 was above 3570 nM and the inhibition at 1 µg/mL is below 50%. In experiment [2], the inhibition at 4 µg/mL amounted to 20.9 ± 3.07%.

In the case of `C=CCCCCOc1ccc2c(=O)c3ccccc3oc2c1` [Compound 14, 3-(Hex-5-en-1-yloxy)-9H-xanthen-9-one], in experiment [1], the 50% inhibitory concentration (IC50) is above 3400 nM and the inhibition at 1 µg/mL is below 50%. Moreover, the inhibition at 4 µg/mL in experiment [2] was 16.4 ± 1.34%.

On to `C=C(C)COc1ccc2c(=O)c3ccccc3oc2c1` [Compound 15, 3-((2-Methylallyl)oxy)-9H-xanthen-9-one], for which the concentration for half-maximal inhibition (IC50) in experiment [1] amounted to 1600 ± 150 nM. The inhibition at 4 µg/mL in experiment [2] was found to be 2.33 ± 0.3%.

Consider `CC(C)=CCOc1ccc2c(=O)c3ccccc3oc2c1` [Compound 16, 3-((3-Methylbut-2-en-1-yl)oxy)-9H-xanthen-9-one], for which, in experiment [1], the 50% inhibitory concentration (IC50) came out at 1860 ± 150 nM. The inhibition at 4 µg/mL in experiment [2] is 7.96 ± 1.22%.

In the case of `CC(C)=CCCOc1ccc2c(=O)c3ccccc3oc2c1` [Compound 17, 3-((4-Methylpent-3-en-1-yl)oxy)-9H-xanthen-9-one], half-maximal inhibition in experiment [1] (IC50) required 1060 ± 120 nM. The inhibition at 4 µg/mL in experiment [2] worked out at 20.9 ± 3.03%.

Turning to `CC#CCOc1ccc2c(=O)c3ccccc3oc2c1` [Compound 18, 3-(But-2-yn-1-yloxy)-9H-xanthen-9-one], in experiment [1], the IC50 is above 3790 nM and the inhibition at 1 µg/mL was below 50%. In addition, the inhibition at 4 µg/mL in experiment [2] was 4.53 ± 0.88%.

For `CCC#CCOc1ccc2c(=O)c3ccccc3oc2c1` [Compound 19, 3-(Pent-2-yn-1-yloxy)-9H-xanthen-9-one], in experiment [1], the IC50 amounted to 1210 ± 50 nM. Besides, the inhibition at 4 µg/mL in experiment [2] was 5.24 ± 0.25%.

In experiment [1], `C#CC(C)Oc1ccc2c(=O)c3ccccc3oc2c1` (centres unmarked) [Compound 20, 3-(But-3-yn-2-yloxy)-9H-xanthen-9-one] came in with a half-maximal inhibitory concentration (IC50) of 2240 ± 170 nM. Also, the inhibition at 4 µg/mL in experiment [2] was 5 ± 0.74%.

`O=c1c2ccccc2oc2cc(OCc3ccccc3)ccc12` [Compound 21, 3-(Benzyloxy)-9H-xanthen-9-one] displayed a half-inhibitory concentration (IC50) in experiment [1] of 990 ± 190 nM. Further, the inhibition at 4 µg/mL in experiment [2] came to 5.04 ± 0.7%.

In experiment [1], `O=c1c2ccccc2oc2cc(OCCCc3ccccc3)ccc12` [Compound 22, 3-(3-Phenylpropoxy)-9H-xanthen-9-one] returned a 50% inhibitory concentration (IC50) of 1220 ± 120 nM. For the same compound, the inhibition at 4 µg/mL in experiment [2] was 15.5 ± 1.93%.

In experiment [1], `O=c1c2ccccc2oc2cc(OCCCCc3ccccc3)ccc12` [Compound 23, 3-(4-Phenylbutoxy)-9H-xanthen-9-one] registered a half-maximal inhibitory concentration (IC50) of 880 ± 40 nM. Further, the inhibition at 4 µg/mL in experiment [2] is 9.19 ± 0.55%. In addition, the “Mode of AChE inhibition” value on AChE is “mixed inhibition mechanism; also recorded: mixed-mode inhibition”.

As to `COCCCOc1ccc2c(=O)c3ccccc3oc2c1` [Compound 24, 3-(3-Methoxypropoxy)-9H-xanthen-9-one], in experiment [1], the IC50 is above 3520 nM and the inhibition at 1 µg/mL is below 50%. For the same compound, in experiment [2], the inhibition at 4 µg/mL was 11 ± 1.38%.

The compound `COCOCCOc1ccc2c(=O)c3ccccc3oc2c1` [Compound 25, 3-(2-(Methoxymethoxy)ethoxy)-9H-xanthen-9-one] yielded an IC50 in experiment [1] of 1370 ± 120 nM. For the same compound, in experiment [2], the inhibition at 4 µg/mL amounted to 10.3 ± 1.24%.

With `COCCOCCOc1ccc2c(=O)c3ccccc3oc2c1` [Compound 26, 3-(2-(2-Methoxyethoxy)ethoxy)-9H-xanthen-9-one], in experiment [1], 970 ± 60 nM corresponded to half-maximal inhibition (IC50). The inhibition at 4 µg/mL in experiment [2] was 17.8 ± 1.6%.

As to `COC(=O)COc1ccc2c(=O)c3ccccc3oc2c1` [Compound 27, Methyl 2-((9-oxo-9H-xanthen-3-yl)oxy)acetate], half-maximal inhibition in experiment [1] (IC50) required 1280 ± 130 nM. In addition, the inhibition at 4 µg/mL in experiment [2] was determined as 7.69 ± 0.34%.

The compound `CCOC(=O)COc1ccc2c(=O)c3ccccc3oc2c1` [Compound 28, Ethyl 2-((9-oxo-9H-xanthen-3-yl)oxy)acetate] registered an IC50 in experiment [1] of 880 ± 150 nM. Besides, the inhibition at 4 µg/mL in experiment [2] was 4.11 ± 0.35%. Besides, the “Mode of AChE inhibition” value at AChE is recorded as “mixed inhibition mechanism; also recorded: mixed-mode inhibition”.

Consider `C[C@H](CO)COc1ccc2c(=O)c3ccccc3oc2c1` [Compound 29, (R)-3-(3-Hydroxy-2-methylpropoxy)-9H-xanthen-9-one], for which, in experiment [1], the IC50 was above 3520 nM and the inhibition at 1 µg/mL is below 50%. For the same compound, the inhibition at 4 µg/mL in experiment [2] was 13.9 ± 0.96%.

Regarding `C[C@@H](CO)COc1ccc2c(=O)c3ccccc3oc2c1` [Compound 30, (S)-3-(3-hydroxy-2-methylpropoxy)-9H-xanthen-9-one], in experiment [1], the IC50 is above 3520 nM and the inhibition at 1 µg/mL is below 50%. In addition, the inhibition at 4 µg/mL in experiment [2] worked out at 5.48 ± 0.31%.
